Data as given in patent US20250108068A1, “COMPOSITIONS AND METHODS FOR ALLEVIATING PULMONARY AILMENTS” (Color Ventures LLC, priority 2023, published 2025).

Tests used:
[1] = tested on: sheep; assay: Tracheal mucus velocity (TMV) in sheep after CFTR inhibition; type: in vivo; details: nebulization, over a period of 2-3 hours
Procedure: Modeling mucociliary clearance. To model mucociliary clearance, sheep 40-50 kg were intubated and the velocity of mucociliary clearance in the trachea was measured by insufflation of radio-opaque Teflon discs were placed into the sheep trachea so that they become embedded in the mucus in the trachea. The movement of multiple discs over several minutes was determined using fluoroscopy and the tracheal mucus velocity (TMV) is calculated as the average that the discs travel per minute. After establishing a baseline TMV, a potent long-lasting inhibitor of CFTR (INH-172) was delivered by nebulization with TMV measurements performed every hour, and over a period of 2-3 hours the TMV declines by approximately 50% in a manner like CF where the inability to secrete Cl^− and NaHCO3 results in dehydration of the airways and slowing of mucociliary clearance.
Once the stable inhibition of TMV has been established, typically at hour 4, the test compound was delivered by nebulization and TMV measured for an additional 8 hours. Inhibitors of ENaC like amiloride (as described in Scott, David W., et al., American Journal of Respiratory and Critical Care Medicine 196.6 (2017): 734-744, incorporated herein in its entirety) and P1037/VX371 show rescue of TMV that is of limited duration with an effect that only lasts for 2-3 hours, due to systemic clearance.

[2] = tested on: test epithelia (MucilAir™); assay: Cilia beating frequency (CBF) and % active area; type: cell-based, human; details: positive control, 100 μM in basolateral compartment for 2 hours
Procedure: In the studies described herein, test epithelia (MucilAir™, Epithelix) are reconstituted from cells isolated from a healthy bronchial donor. The formulation is exposed apically to mimic deposition on the nasal mucosa via inhalation. In the studies described herein, positive controls depend on experiment. For example: Isoproterenol 100 μM in culture medium; CBF activator applied in basolateral compartment ([…]) for 2 hours (CBF positive control); Isoproterenol 100 μM in culture medium (MCC positive control); […] Timeline of Epithelia Experiments. At time point 0, epithelia are treated with the test formulation or control using an apical mode of administration. Test formulations or control were exposed at a quantity of 10 μL, at the concentrations in Table 1. […] In some embodiments, CBF is analyzed with Sisson-Ammons Video Analysis (SAVA) software (Sisson et al., Journal of microscopy 211.2 (2003): 103-111) using an inverted phase contrast microscope (Zeiss®, Germany). In some embodiments, CBF is analyzed with Epithelix software (Cilia-X). […] In some embodiments, two videos are recorded per well at 120 frames per second with a total of 512 frames per video. In other embodiments, the CBF is expressed as Hz 256, wherein movies are captured at a high frequency rate of 125 frames per second. […]

O=C(O)c1ccc(C=C2SC(=S)N(c3cccc(C(F)(F)F)c3)C2=O)cc1 [INH-172]
Decline of TMV from baseline [1]: approximately 50%

CC(C)NCC(O)c1ccc(O)c(O)c1 (centres unmarked) [positive control of cilia beating, Isoproterenol]
Cilia beating frequency [2]: highest cilia beating frequency
